Results as given in patent US12551532B2, “Long-acting amylin receptor agonists and uses thereof” (Eli Lilly and Company, priority 2021, dated 2026).
Starred links: 1 amine or outer side, 2 acyl side, 3 side chain; linkers in the order of their positions; H or OH if unused. Positions of bridges follow the written chain, without caps; N, C: chain ends. Non-standard residues stand in square brackets, D forms with d. Residues, ends and D or L forms follow the SMILES beside them. Groups on a side chain read outwards from the residue. *: point of attachment. C20 diacid = O=C(O)CCCCCCCCCCCCCCCCCCC(=O)*; γGlu = O=C(O)[C@H](CCC(=O)[*:2])N[*:1]; αMeF = C[C@](N)(Cc1ccccc1)C(=O)O; NMeD = CN[C@@H](CC(=O)O)C(=O)O; NMeN = CN[C@@H](CC(N)=O)C(=O)O; αMeL = CC(C)C[C@](C)(N)C(=O)O; Orn = NCCC[C@H](N)C(=O)O; CH2 = C([*:1])[*:2]

Assays:
[1] = target: T1, human calcitonin receptor (hCTR) (Homo sapiens, UniProt P30988); assay: hCTR competitive radioligand binding filter assay (125I-hCT); conditions: ± SE; membranes of hCTR overexpressing cells
T1 construct: expressed in transfected cells; host or cells: membranes of UM-UC-3 (UMUC3) cells stably expressing human CTa
T1 sequence (P30988 25-474): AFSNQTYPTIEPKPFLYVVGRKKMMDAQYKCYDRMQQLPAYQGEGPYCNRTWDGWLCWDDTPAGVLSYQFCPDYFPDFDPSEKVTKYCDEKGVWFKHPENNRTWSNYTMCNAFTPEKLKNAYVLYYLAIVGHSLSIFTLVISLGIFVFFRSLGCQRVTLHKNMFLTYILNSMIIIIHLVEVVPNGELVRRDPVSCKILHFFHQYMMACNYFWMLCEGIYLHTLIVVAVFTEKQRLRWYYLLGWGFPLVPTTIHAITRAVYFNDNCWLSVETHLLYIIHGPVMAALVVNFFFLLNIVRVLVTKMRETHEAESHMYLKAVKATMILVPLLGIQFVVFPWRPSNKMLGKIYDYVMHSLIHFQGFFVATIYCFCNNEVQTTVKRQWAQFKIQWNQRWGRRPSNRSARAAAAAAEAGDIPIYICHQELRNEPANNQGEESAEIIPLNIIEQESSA
Experimental: (§1) The equilibrium dissociation constants (Kd) for the various receptor/radioligand interactions are determined from saturation binding analysis using the same reagents and buffers as described below for compound testing.
The receptor binding affinity (Ki) of rAMY, hCT, and hAMY agonist peptides on hCTR membranes is determined from a competitive radioligand binding filter assay.

[2] = tested on: CD4+ T cells; assay: T cell proliferation assay; conditions: 7-10 donors with diverse MHC
Experimental: This assay assesses the ability of tested antibodies or tested MAPPS peptides to activate CD4+ T cells by inducing cellular proliferation. CD8+ T cell depleted PBMC's are prepared and labeled with CFSE. Each sample is tested with media control, keyhole limpet haemocyanin (KLH; positive clinical benchmark control), tested antibodies, or tested MAPPS peptides. Cultures are incubated for 7 days. On day 7, samples are analyzed by flow cytometry.

[3] = target: T2, hAMY1R (Homo sapiens, UniProt O60894+P30988); assay: hAMY1R competitive radioligand binding filter assay (125I-rAMY); conditions: ± SE; membranes of hAMY1R overexpressing cells
T2 construct: expressed in transfected cells
T2 sequence (O60894 27-148 partner, one chain of several): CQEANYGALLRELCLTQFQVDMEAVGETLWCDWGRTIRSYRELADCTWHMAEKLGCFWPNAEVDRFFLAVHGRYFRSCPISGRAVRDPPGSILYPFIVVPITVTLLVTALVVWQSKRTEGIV
Experimental: as §1
The receptor binding affinity (Ki) of rAMY, hCT, and hAMY agonist peptides are determined from a competitive radioligand binding filter assay. The assay buffer consists of (in mM) 50 HEPES, pH 7.1, 5 MgCl2, 5 KCl, 0.2% (w/v) bacitracin, 0.003% (w/v) saponin and is used to dilute radioligand and membrane preparation. Binding reactions are carried out in 0.1 mL total reaction volume in a polystyrene 96 deep-well assay block. […] Test compounds and non-specific binding (NSB—defined as 300 nM rAMY) are added to aliquots of radioactivity buffer. […] The binding reaction is initiated by the addition of 0.05 mL of 200 μg/mL hAMY1R diluted in assay buffer to the radioactivity. Assay blocks are gently vortexed, sealed with parafilm, and incubated at RT for approximately 20 hours. […] At the end of the incubation, bound ligand is separated from free by addition of an ice cold quench buffer consisting of 100 mM NaCl, 50 mM TRIS-HCl pH 7.1 and immediately collected over the filter mat by vacuum filtration with a TomTec 96 well filter harvester using the following filter protocol (Dry time, 7; Cycle 3 repeat, 0; Wash Time, 1; Soak Time, 1; 1st Aspirate Time, 4; Wash/Aspirate Time, 7; 2nd Aspirate, 4; air pressure 2 PSI).

[4] = tested on: pre-existing antibodies (ADA) in normal human serum; assay: Pre-existing reactivity (ACE assay format); conditions: >50 donors; treatment-naive normal human serum
Experimental: This assay assesses the presence of pre-existing antibodies (ADA) against the tested molecules in treatment-naive normal human serum (NHS). Diluted NHS is incubated overnight on a Pierce Streptavidin plate coated with biotinylated tested molecules. On the following day, the captured binding proteins are acid eluted, hard-coated to a Mesoscale (MSD) plate, and detected with a combination of biotin-labeled molecule and ruthenium-labeled streptavidin. If anti-drug antibodies are present, they will bind the labeled drug and the resulting signal is referred to as Tier 1 signal (expressed as electrochemiluminescence). This signal is confirmed in Tier 2 by adding excess unlabeled tested molecule in the detection step, which results in the suppression of the Tier 1 signal. The presence of pre-existing anti-drug antibodies is expressed as magnitude of the 90th percentile of Tier 2 inhibition. The 90th percentile of Tier 2 inhibition, is a statistical tool to assess the magnitude of specificity of Tier 1 reactivity. This 90th percentile is used to rank molecules in terms of ADA risk.

[5] = Pharmacokinetics in male cynomolgus monkeys; type: in vivo; conditions: single SC 20 nmol/kg, mean; for CL/F / Tmax / half-life: male, cynomolgus monkey, plasma; for CL/F / Tmax / AUCINF/D / Cmax/D: n = 3; for half-life: n = 3, read-out: T½ (converted)
Experimental: The pharmacokinetics of Compound II (SEQ ID NO:2), Compound IV (SEQ ID NO:4), Compound VI (SEQ ID NO:6), and Compound VIII (SEQ ID NO:8) are evaluated following a single subcutaneous administration of 20 nmol/kg to male cynomolgus monkeys. Blood samples are collected at 1, 3, 6, 12, 24, 48, 72, 120, 168, 240, 336, 408, 504 hours post SC dose. The resulting individual plasma concentrations are used to calculate pharmacokinetic parameters. Peptide plasma (K3EDTA) concentrations are determined using a qualified LC/MS method that measured the intact mass of the peptides. Each peptide and an analog as an internal standard are extracted from plasma. A high resolution Thermo Q-Exactive is used for LC/MS detection.

[6] = target: T2, hAMY1R; assay: hAMY1R cAMP functional activity (HTRF); type: cell-based; conditions: ±SE; UMUC3 cells overexpressing hAMY1R; relative EC50
Experimental: The AMY1 and CT receptors are GPCRs that are functionally coupled to Gas proteins. […] In vitro activity of peptides is measured by the amount of cAMP formed in human AMY1R and CTR overexpressed cells.
Human AMY1R stable cell lines are generated by further transfecting human RAMP1-pCMVpuroPB (T14213) into UMUC3 hCTR clone cells. After selection, the mRNA levels human RAMP1 from different clones are measured to confirm the expression of human AMY1R.
hAMY1R cells are cultured in MEM 1× (Corning) supplemented with 10% FBS, 1% antibiotic/antimycotic solution, 1 mM sodium pyruvate, 1×MEM NEAA, 1× GlutaMAX-I, 200 μg/mL hygromycin B, and 0.4 μg/mL puromycin. The hCTR cells are cultured in the same medium lacking the puromycin. Cultured cells are grown to 70% confluency and then incubated overnight with fresh medium.
Peptides diluted in DMSO are added (200 nL/well) in a 1:3 dilution series using ECHO acoustic liquid handler (Beckman). Cultured cells are detached with TrypLE Express (Gibco), resuspended in assay buffer, and 10 μL containing 1200 cells/well (hCTR) or 1500 cells/well (hAMY1R) are dispensed into each well. The plates are incubated at room temperature for 1 hour.
The amount of intracellular cAMP is quantitated using HTRF technology (Homogeneous Time Resolved Fluorescence; Cisbio) as per vendor instructions. Briefly, 10 μL cAMP-d2 conjugate and 10 μL anti-cAMP-cryptate conjugate in lysis buffer are incubated with the treated cells at room temperature for 60 min. […] The raw data are converted to cAMP amount (pmol/well) using a cAMP standard curve generated for each experiment.

Compound	Ki [1]	T Cell Proliferation Assay: protein, immunogenicity risk [2]	T Cell Proliferation Assay: protein, positive donors [2]	Ki [3]	Pre-existing Reactivity 90th percentile T2 inhibition [4]	CL/F [5]	Tmax [5]	half-life [5]	AUCINF/D [5]	Cmax/D [5]	EC50 [6]
CC[C@H](C)[C@H](NC(=O)[C@@H]1CCCN1C(=O)CNC(=O)[C@H](Cc1ccccc1)NC(=O)[C@H](CC(N)=O)NC(=O)[C@H](Cc1c[nH]cn1)NC(=O)[C@H](CO)NC(=O)[C@H](CO)NC(=O)[C@H](CCCNC(=N)N)NC(=O)[C@@H](NC(=O)[C@H](CC(C)C)NC(=O)[C@H](Cc1ccccc1)NC(=O)[C@H](CCC(=O)O)NC(=O)[C@H](C)NC(=O)[C@](C)(CC(C)C)NC(=O)[C@H](CCCN)NC(=O)CNC(=O)[C@@H](NC(=O)[C@H](C)NC(=O)[C@@H]1CSCSC[C@H](NC(=O)[C@@H](N)CCCCNC(=O)CC[C@H](NC(=O)CC[C@H](NC(=O)CCCCCCCCCCCCCCCCCCC(=O)O)C(=O)O)C(=O)O)C(=O)N[C@@H](CCC(=O)O)C(=O)N[C@@H]([C@@H](C)O)C(=O)N[C@@H](C)C(=O)N[C@@H]([C@@H](C)O)C(=O)N1)[C@@H](C)O)C(C)C)C(=O)N[C@@H](CC(C)C)C(=O)N1CCC[C@H]1C(=O)N1CCC[C@H]1C(=O)N[C@H](C(=O)N[C@@H](CCC(=O)O)C(=O)N[C@H](C(=O)NCC(=O)N[C@@H](CO)C(=O)N[C@@H](CC(N)=O)C(=O)N[C@H](C(=O)N[C@@H](Cc1ccc(O)cc1)C(N)=O)[C@@H](C)O)C(C)C)[C@@H](C)O [Compound VIII] (H-K([γGlu-γGlu-C20 diacid])CETATCATG[Orn][αMeL]AEFLVRSSHNFGPILPPTEVGSNTY-NH2; linker 2-7 via CH2)	927 ± 120 nM	Low Risk	(1/9	0.0435 ± 0.0072 nM	51.4%	25.7 mL/day/kg	28 ± 18.3 h	2.58 ± 0.196 days	942 ± 67 hr * kg * nmol/L/nmol	7.2 ± 0.3 kg * nmol/L/nmol	0.107 ± 0.02 nM
CC(C)C[C@H](NC(=O)[C@H](CCCN)NC(=O)CNC(=O)[C@@H](NC(=O)[C@H](C)NC(=O)[C@@H]1CSCSC[C@H](NC(=O)CC[C@H](N)C(=O)O)C(=O)N[C@@H](CC(N)=O)C(=O)N[C@@H]([C@@H](C)O)C(=O)N[C@@H](C)C(=O)N[C@@H]([C@@H](C)O)C(=O)N1)[C@@H](C)O)C(=O)N[C@@H](C)C(=O)N[C@@H](CCC(=O)O)C(=O)N[C@@](C)(Cc1ccccc1)C(=O)N[C@@H](CC(C)C)C(=O)N[C@H](C(=O)N[C@@H](CCCNC(=N)N)C(=O)N[C@@H](CO)C(=O)N[C@@H](CO)C(=O)N[C@@H](CC(N)=O)C(=O)N(C)[C@@H](CC(N)=O)C(=O)N[C@@H](Cc1ccccc1)C(=O)NCC(=O)N1CCC[C@H]1C(=O)N[C@@H](CCCCNC(=O)CC[C@H](NC(=O)CC[C@H](NC(=O)CCCCCCCCCCCCCCCCCCC(=O)O)C(=O)O)C(=O)O)C(=O)N[C@@H](CC(C)C)C(=O)N1CCC[C@H]1C(=O)N1CCC[C@H]1C(=O)N[C@H](C(=O)N[C@@H](CCC(=O)O)C(=O)N[C@H](C(=O)NCC(=O)N[C@@H](CO)C(=O)N[C@@H](CC(N)=O)C(=O)N[C@H](C(=O)N[C@@H](Cc1ccc(O)cc1)C(N)=O)[C@@H](C)O)C(C)C)[C@@H](C)O)C(C)C [Compound II] (γGlu-CNTATCATG[Orn]LAE[αMeF]LVRSSN[NMeN]FGPK([γGlu-γGlu-C20 diacid])LPPTEVGSNTY-NH2; linker 1-6 via CH2)	202 ± 45 nM	Low Risk	(0/9	0.017 ± 0.006 nM	48.8%		64 ± 13.9 h		1752 ± 313 hr * kg * nmol/L/nmol	6.7 ± 1.0 kg * nmol/L/nmol	0.075 ± 0.012 nM
CC(C)C[C@H](NC(=O)[C@H](CCCN)NC(=O)CNC(=O)[C@@H](NC(=O)[C@H](C)NC(=O)[C@@H]1CSCSC[C@H](NC(=O)CC[C@H](N)C(=O)O)C(=O)N[C@@H](CC(N)=O)C(=O)N[C@@H]([C@@H](C)O)C(=O)N[C@@H](C)C(=O)N[C@@H]([C@@H](C)O)C(=O)N1)[C@@H](C)O)C(=O)N[C@@H](C)C(=O)N[C@@H](CCC(=O)O)C(=O)N[C@@](C)(Cc1ccccc1)C(=O)N[C@@H](CC(C)C)C(=O)N[C@H](C(=O)N[C@@H](CCCNC(=N)N)C(=O)N[C@@H](CO)C(=O)N[C@@H](CO)C(=O)N[C@@H](CC(N)=O)C(=O)N(C)[C@@H](CC(=O)O)C(=O)N[C@@H](Cc1ccccc1)C(=O)NCC(=O)N1CCC[C@H]1C(=O)N[C@@H](CCCCNC(=O)CC[C@H](NC(=O)CC[C@H](NC(=O)CCCCCCCCCCCCCCCCCCC(=O)O)C(=O)O)C(=O)O)C(=O)N[C@@H](CC(C)C)C(=O)N1CCC[C@H]1C(=O)N1CCC[C@H]1C(=O)N[C@H](C(=O)N[C@@H](CCC(=O)O)C(=O)N[C@H](C(=O)NCC(=O)N[C@@H](CO)C(=O)N[C@@H](CC(N)=O)C(=O)N[C@H](C(=O)N[C@@H](Cc1ccc(O)cc1)C(N)=O)[C@@H](C)O)C(C)C)[C@@H](C)O)C(C)C [Compound IV, γE-CNTATCATG-Orn-LAE-αMeF-LVRSSN-NMeD-FGPKLPPTEVGSNTY-NH2] (γGlu-CNTATCATG[Orn]LAE[αMeF]LVRSSN[NMeD]FGPK([γGlu-γGlu-C20 diacid])LPPTEVGSNTY-NH2; linker 1-6 via CH2)	665 ± 113 nM	Low Risk	(0/9	0.0296 ± 0.0099 nM	33.2%	14.9 mL/day/kg	48 ± 24 h	7.38 ± 0.562 days	1607 ± 104 hr * kg * nmol/L/nmol	6.2 ± 1.0 kg * nmol/L/nmol	0.107 ± 0.016 nM
